Measurements from publication PMC11124057 (Molecules, 2024).
Read-outs that look alike come from different tables or passages of the source.

Columns and labels:
[1] = not given; remark: listed apart in the source

## CC(C)Cc1ccc(C(C)C(=O)O)cc1 (racemic) [ibuprofen, (RS)-2-(4-(2-methylpropyl)phenyl)propanoic acid]
Neat DES betaine-DEG 1:1, 25°C
  Mole fraction solubility: 0.223±0.0026 mole fraction
Neat DES betaine-GLY 1:2, 25°C, listed as IP
  Mole fraction solubility: 0.297 mole fraction
Neat DES betaine-P2D 1:1, 25°C
  Mole fraction solubility: 0.1561±0.0027 mole fraction
Neat DES betaine-P2D 1:2, 25°C
  Mole fraction solubility: 0.1919±0.0023 mole fraction
Neat DES betaine-P2D 1:4, 25°C
  Mole fraction solubility: 0.2062±0.0014 mole fraction
Neat DES betaine-TEG 1:2, 25°C, listed as IP
  Mole fraction solubility: 0.321 mole fraction
Neat DES choline chloride-B3D 1:1, 25°C
  Mole fraction solubility: 0.1584±0.0030 mole fraction
Neat DES choline chloride-B3D 1:4, 25°C
  Mole fraction solubility: 0.1899±0.0025 mole fraction
Neat DES choline chloride-ETG 1:1, 25°C
  Mole fraction solubility: 0.2167±0.0034 mole fraction
Neat DES choline chloride-ETG 1:2, 25°C
  Mole fraction solubility: 0.3072±0.0025 mole fraction
Neat DES choline chloride-ETG 1:4, 25°C
  Mole fraction solubility: 0.2905±0.0061 mole fraction
Neat DES choline chloride-GLY 1:1, 25°C
  Mole fraction solubility: 0.2793±0.0019 mole fraction
Neat DES choline chloride-GLY 1:2, 25°C
  Mole fraction solubility: 0.3495±0.0031 mole fraction
Neat DES choline chloride-GLY 1:2, 25°C, listed as IP
  Mole fraction solubility: 0.349 mole fraction
Neat DES choline chloride-GLY 1:4, 25°C
  Mole fraction solubility: 0.3187±0.0038 mole fraction
Neat DES choline chloride-P2D 1:1, 25°C
  Mole fraction solubility: 0.1611±0.0024 mole fraction
Neat DES choline chloride-P2D 1:2, 25°C
  Mole fraction solubility: 0.2068±0.0046 mole fraction
Neat DES choline chloride-TEG 1:2, 25°C, listed as IP
  Mole fraction solubility: 0.353 mole fraction
[1]; DES betaine + TEG 1:2, x*DES 1.0, 25°C
  Mole fraction solubility: 0.3209±0.0024 mole fraction
[1]; DES betaine + TEG 1:2, x*DES 1.0, 30°C
  Mole fraction solubility: 0.3830±0.0062 mole fraction
[1]; DES betaine + TEG 1:2, x*DES 1.0, 35°C
  Mole fraction solubility: 0.4548±0.0069 mole fraction
[1]; DES betaine + TEG 1:2, x*DES 1.0, 40°C
  Mole fraction solubility: 0.5444±0.0067 mole fraction
[1]; DES choline chloride + TEG 1:2, x*DES 1.0, 25°C
  Mole fraction solubility: 0.3528±0.0029 mole fraction
[1]; DES choline chloride + TEG 1:2, x*DES 1.0, 30°C
  Mole fraction solubility: 0.4366±0.0077 mole fraction
[1]; DES choline chloride + TEG 1:2, x*DES 1.0, 35°C
  Mole fraction solubility: 0.5483±0.0115 mole fraction
[1]; DES choline chloride + TEG 1:2, x*DES 1.0, 40°C
  Mole fraction solubility: 0.6784±0.0040 mole fraction
[1]; aqueous DES betaine + TEG 1:2, x*DES 0.1, 25°C
  Mole fraction solubility: 0.0396±0.0003 mole fraction
[1]; aqueous DES betaine + TEG 1:2, x*DES 0.1, 30°C
  Mole fraction solubility: 0.0475±0.0007 mole fraction
[1]; aqueous DES betaine + TEG 1:2, x*DES 0.1, 35°C
  Mole fraction solubility: 0.0561±0.0003 mole fraction
[1]; aqueous DES betaine + TEG 1:2, x*DES 0.1, 40°C
  Mole fraction solubility: 0.0688±0.0013 mole fraction
[1]; aqueous DES betaine + TEG 1:2, x*DES 0.2, 25°C
  Mole fraction solubility: 0.0911±0.0020 mole fraction
[1]; aqueous DES betaine + TEG 1:2, x*DES 0.2, 30°C
  Mole fraction solubility: 0.1077±0.0009 mole fraction
[1]; aqueous DES betaine + TEG 1:2, x*DES 0.2, 35°C
  Mole fraction solubility: 0.1301±0.0019 mole fraction
[1]; aqueous DES betaine + TEG 1:2, x*DES 0.2, 40°C
  Mole fraction solubility: 0.1547±0.0024 mole fraction
[1]; aqueous DES betaine + TEG 1:2, x*DES 0.3, 25°C
  Mole fraction solubility: 0.1423±0.0035 mole fraction
[1]; aqueous DES betaine + TEG 1:2, x*DES 0.3, 30°C
  Mole fraction solubility: 0.1670±0.0021 mole fraction
[1]; aqueous DES betaine + TEG 1:2, x*DES 0.3, 35°C
  Mole fraction solubility: 0.2005±0.0018 mole fraction
[1]; aqueous DES betaine + TEG 1:2, x*DES 0.3, 40°C
  Mole fraction solubility: 0.2400±0.0050 mole fraction
[1]; aqueous DES betaine + TEG 1:2, x*DES 0.4, 25°C
  Mole fraction solubility: 0.1950±0.0030 mole fraction
[1]; aqueous DES betaine + TEG 1:2, x*DES 0.4, 30°C
  Mole fraction solubility: 0.2288±0.0034 mole fraction
[1]; aqueous DES betaine + TEG 1:2, x*DES 0.4, 35°C
  Mole fraction solubility: 0.2772±0.0045 mole fraction
[1]; aqueous DES betaine + TEG 1:2, x*DES 0.4, 40°C
  Mole fraction solubility: 0.3302±0.0064 mole fraction
[1]; aqueous DES betaine + TEG 1:2, x*DES 0.5, 25°C
  Mole fraction solubility: 0.2459±0.0052 mole fraction
[1]; aqueous DES betaine + TEG 1:2, x*DES 0.5, 30°C
  Mole fraction solubility: 0.2949±0.0045 mole fraction
[1]; aqueous DES betaine + TEG 1:2, x*DES 0.5, 35°C
  Mole fraction solubility: 0.3502±0.0073 mole fraction
[1]; aqueous DES betaine + TEG 1:2, x*DES 0.5, 40°C
  Mole fraction solubility: 0.4150±0.0056 mole fraction
[1]; aqueous DES betaine + TEG 1:2, x*DES 0.6, 25°C
  Mole fraction solubility: 0.2941±0.0043 mole fraction
[1]; aqueous DES betaine + TEG 1:2, x*DES 0.6, 30°C
  Mole fraction solubility: 0.3535±0.0052 mole fraction
[1]; aqueous DES betaine + TEG 1:2, x*DES 0.6, 35°C
  Mole fraction solubility: 0.4213±0.0098 mole fraction
[1]; aqueous DES betaine + TEG 1:2, x*DES 0.6, 40°C
  Mole fraction solubility: 0.5066±0.0066 mole fraction
[1]; aqueous DES betaine + TEG 1:2, x*DES 0.7, 25°C
  Mole fraction solubility: 0.3409±0.0049 mole fraction
[1]; aqueous DES betaine + TEG 1:2, x*DES 0.7, 30°C
  Mole fraction solubility: 0.4057±0.0067 mole fraction
[1]; aqueous DES betaine + TEG 1:2, x*DES 0.7, 35°C
  Mole fraction solubility: 0.4779±0.0128 mole fraction
[1]; aqueous DES betaine + TEG 1:2, x*DES 0.7, 40°C
  Mole fraction solubility: 0.5883±0.0063 mole fraction
[1]; aqueous DES betaine + TEG 1:2, x*DES 0.8, 25°C
  Mole fraction solubility: 0.3800±0.0058 mole fraction
[1]; aqueous DES betaine + TEG 1:2, x*DES 0.8, 25°C, listed as IP
  Mole fraction solubility: 0.380 mole fraction
[1]; aqueous DES betaine + TEG 1:2, x*DES 0.8, 30°C
  Mole fraction solubility: 0.4493±0.0062 mole fraction
[1]; aqueous DES betaine + TEG 1:2, x*DES 0.8, 35°C
  Mole fraction solubility: 0.5335±0.0056 mole fraction
[1]; aqueous DES betaine + TEG 1:2, x*DES 0.8, 40°C
  Mole fraction solubility: 0.6375±0.0137 mole fraction
[1]; aqueous DES betaine + TEG 1:2, x*DES 0.9, 25°C
  Mole fraction solubility: 0.3582±0.0053 mole fraction
[1]; aqueous DES betaine + TEG 1:2, x*DES 0.9, 30°C
  Mole fraction solubility: 0.4279±0.0034 mole fraction
[1]; aqueous DES betaine + TEG 1:2, x*DES 0.9, 35°C
  Mole fraction solubility: 0.5040±0.0073 mole fraction
[1]; aqueous DES betaine + TEG 1:2, x*DES 0.9, 40°C
  Mole fraction solubility: 0.6012±0.0090 mole fraction
[1]; aqueous DES choline chloride + TEG 1:2, x*DES 0.1, 25°C
  Mole fraction solubility: 0.0211±0.0003 mole fraction
[1]; aqueous DES choline chloride + TEG 1:2, x*DES 0.1, 30°C
  Mole fraction solubility: 0.0257±0.0001 mole fraction
[1]; aqueous DES choline chloride + TEG 1:2, x*DES 0.1, 35°C
  Mole fraction solubility: 0.0318±0.0006 mole fraction
[1]; aqueous DES choline chloride + TEG 1:2, x*DES 0.1, 40°C
  Mole fraction solubility: 0.0386±0.0006 mole fraction
[1]; aqueous DES choline chloride + TEG 1:2, x*DES 0.2, 25°C
  Mole fraction solubility: 0.0641±0.0005 mole fraction
[1]; aqueous DES choline chloride + TEG 1:2, x*DES 0.2, 30°C
  Mole fraction solubility: 0.0783±0.0007 mole fraction
[1]; aqueous DES choline chloride + TEG 1:2, x*DES 0.2, 35°C
  Mole fraction solubility: 0.0973±0.0012 mole fraction
[1]; aqueous DES choline chloride + TEG 1:2, x*DES 0.2, 40°C
  Mole fraction solubility: 0.1210±0.0019 mole fraction
[1]; aqueous DES choline chloride + TEG 1:2, x*DES 0.3, 25°C
  Mole fraction solubility: 0.1227±0.0023 mole fraction
[1]; aqueous DES choline chloride + TEG 1:2, x*DES 0.3, 30°C
  Mole fraction solubility: 0.1520±0.0019 mole fraction
[1]; aqueous DES choline chloride + TEG 1:2, x*DES 0.3, 35°C
  Mole fraction solubility: 0.1876±0.0024 mole fraction
[1]; aqueous DES choline chloride + TEG 1:2, x*DES 0.3, 40°C
  Mole fraction solubility: 0.2338±0.0048 mole fraction
[1]; aqueous DES choline chloride + TEG 1:2, x*DES 0.4, 25°C
  Mole fraction solubility: 0.1961±0.0021 mole fraction
[1]; aqueous DES choline chloride + TEG 1:2, x*DES 0.4, 30°C
  Mole fraction solubility: 0.2424±0.0032 mole fraction
[1]; aqueous DES choline chloride + TEG 1:2, x*DES 0.4, 35°C
  Mole fraction solubility: 0.2953±0.0062 mole fraction
[1]; aqueous DES choline chloride + TEG 1:2, x*DES 0.4, 40°C
  Mole fraction solubility: 0.3695±0.005 mole fraction
[1]; aqueous DES choline chloride + TEG 1:2, x*DES 0.5, 25°C
  Mole fraction solubility: 0.2548±0.0063 mole fraction
[1]; aqueous DES choline chloride + TEG 1:2, x*DES 0.5, 30°C
  Mole fraction solubility: 0.3205±0.0083 mole fraction
[1]; aqueous DES choline chloride + TEG 1:2, x*DES 0.5, 35°C
  Mole fraction solubility: 0.3919±0.0029 mole fraction
[1]; aqueous DES choline chloride + TEG 1:2, x*DES 0.5, 40°C
  Mole fraction solubility: 0.4807±0.0064 mole fraction
[1]; aqueous DES choline chloride + TEG 1:2, x*DES 0.6, 25°C
  Mole fraction solubility: 0.2992±0.0052 mole fraction
[1]; aqueous DES choline chloride + TEG 1:2, x*DES 0.6, 30°C
  Mole fraction solubility: 0.3723±0.0052 mole fraction
[1]; aqueous DES choline chloride + TEG 1:2, x*DES 0.6, 35°C
  Mole fraction solubility: 0.4667±0.0108 mole fraction
[1]; aqueous DES choline chloride + TEG 1:2, x*DES 0.6, 40°C
  Mole fraction solubility: 0.5790±0.0052 mole fraction
[1]; aqueous DES choline chloride + TEG 1:2, x*DES 0.7, 25°C
  Mole fraction solubility: 0.3351±0.0045 mole fraction
[1]; aqueous DES choline chloride + TEG 1:2, x*DES 0.7, 30°C
  Mole fraction solubility: 0.4232±0.0081 mole fraction
[1]; aqueous DES choline chloride + TEG 1:2, x*DES 0.7, 35°C
  Mole fraction solubility: 0.5264±0.0138 mole fraction
[1]; aqueous DES choline chloride + TEG 1:2, x*DES 0.7, 40°C
  Mole fraction solubility: 0.6531±0.0080 mole fraction
[1]; aqueous DES choline chloride + TEG 1:2, x*DES 0.8, 25°C
  Mole fraction solubility: 0.3673±0.0062 mole fraction
[1]; aqueous DES choline chloride + TEG 1:2, x*DES 0.8, 30°C
  Mole fraction solubility: 0.4557±0.0051 mole fraction
[1]; aqueous DES choline chloride + TEG 1:2, x*DES 0.8, 35°C
  Mole fraction solubility: 0.5712±0.0136 mole fraction
[1]; aqueous DES choline chloride + TEG 1:2, x*DES 0.8, 40°C
  Mole fraction solubility: 0.7095±0.0082 mole fraction
[1]; aqueous DES choline chloride + TEG 1:2, x*DES 0.9, 25°C
  Mole fraction solubility: 0.3754±0.0036 mole fraction
[1]; aqueous DES choline chloride + TEG 1:2, x*DES 0.9, 25°C, listed as IP
  Mole fraction solubility: 0.375 mole fraction
[1]; aqueous DES choline chloride + TEG 1:2, x*DES 0.9, 30°C
  Mole fraction solubility: 0.4619±0.0105 mole fraction
[1]; aqueous DES choline chloride + TEG 1:2, x*DES 0.9, 35°C
  Mole fraction solubility: 0.5742±0.0073 mole fraction
[1]; aqueous DES choline chloride + TEG 1:2, x*DES 0.9, 40°C
  Mole fraction solubility: 0.7138±0.0065 mole fraction
